In assay [1] the target is hemoglobin in red cell suspensions (Homo sapiens, UniProt P68871+P69905). Description: Allosteric effector activity in the presence of serum albumin in buffered red cell suspensions (FIG. 3). It is filed as cell-based. The note with it: for effector activity in the presence of serum albumin: FIG. 3, effector 0.5 mM (L3,4,5 0.25 mM). The text has this: L3,5 and L3,4,5 were provided by Dr. Lalezari (Montefiore Hospital, New York); RSR-4 [2-[4-[[(3,5-dichloroanilino)carbonyl]methyl]phenoxy]-2-methylpropionic acid]and RSR13 [2-4-[[(3,5- dimethylanilino)carbonyl]methyl]phenoxy]-2-methylpropionic acid] have been synthesized following the procedure described in Randad et al. (J. Med. Chem. 34,752 (1991)). Human serum albumin (HSA), bovine serum albumin (BSA) and 4,4'diisothiocyanatostilbene-2,2'-disulfonate (DIDS) were purchased from Sigma (St. Louis, Mo.). Due to their low solubility in aqueous buffer, 10 mM stock solutions of the compounds were prepared in a slight exccess of sodium bicarbonate and back-titrated to pH 7.4. For example, RSR-4 or RSR-13 was dissolved at 60° C. in a 140 mM NaCl and 50 mM bis-Tris buffer at room temperature upon progressive addition of NaHCO3 to obtain 10 mM stock solutions. The pH was carefully adjusted to 7.4 after complete solubilization and before use of the solutions. Fresh solutions were prepared each week. Stock solutions of DIDS (1 mM) were prepared, in the dark, on the day of the experiments in a pH 7.4 buffer. Human serum albumin (defatted HSA) and bovine serum albumin (BSA) were prepared freshly as 1 mM stock solutions, pH 7.4. Equilibrium Measurements. The allosteric modulation of the effectors on freshly prepared solutions of hemoglobin or red cell suspensions was measured by the change in p50, the partial pressure of oxygen for half-saturation. Oxygen equilibrium curves (OEC) were carried out with the Hemox analyzer (TCS, Southampton, Pa.) under the following conditions: pH 7.4, 140 mM NaCl and 50 mM bis-Tris buffer at 37° C. In all experiments, the concentration of hemoglobin in the red cell suspensions was 20-25 μM hemoglobin tetramer (Hb4) as measured by Drabkin's method (cyanomethemoglobin) at the end of each recording. The final concentration of the allosteric effector in the cuvette was 0.5 mM, resulting in an effector/Hb4 ratio of 20 in the absence of albumin. […]

A further assay deals with deoxyhemoglobin (Homo sapiens, UniProt P68871+P69905). Briefly: X-ray crystallographic studies with deoxyhemoglobin. It is filed as binding. As to the method: X-ray Crystallographic Studies. Hemoglobin for the crystal studies was prepared from human blood, and T-state deoxy crystals were obtained from ammonium sulfate solutions. RSR-4 or RSR-13 (2 effectors/I Hb) was dissolved in a slight excess of sodium bicarbonate to facilitate dissolution and was added to a 6 g % solution of deoxy-Hb in the glove box. A 1 g % Hb RSR-4 or RSR-13 solution was added to each crystallization tube. Crystals grew in approximately 1 week. X-ray data were collected with Friedel pairs using ω scans on a Rigaku AFC5R diffractometer equipped with a rotating anode and a 60-cm long evacuated beam tunnel. The crystals with allosteric effectors were isomorphous with native deoxy-Hb: RSR-4, 63.2, 83.7, and 53.8 Å, 99.4°; RSR-13, 63.2, 83.6, and 53.7 Å, 99.5°. Data collection (RSR-4 to 2.4-Å and RSR-13 to 2.8-Å resolution) was controlled by TEXAN software from Molecular Structure Corp. (The Woodlands, Tex.). There was little radiation damage to crystals, and new crystals were mounted when standard reference reflection intensities fell by 10%. All data were corrected for radiation damage when appropriate. The R-factors for the Friedel pairs and derivatives vs. native were as follows: RSR-4 (2.4 Å), 14.6% and 18.9%, and RSR-13 (2.8 Å), 7.2% and 12.5%, respectively. The difference electron density maps were obtained using the Cambridge computer programs (CCP4). […] The allosteric effector molecules were well resolved and easily fit to the difference density.

The target of assay [2] is hemoglobin in human red blood cells (Homo sapiens, UniProt P68871+P69905). Description: Calculated oxygen delivery index of human red blood cell suspensions (ΔY). It is filed as cell-based. Conditions: human RBC, effector 0.5 mM. The text has this: L3,5 and L3,4,5 were provided by Dr. Lalezari (Montefiore Hospital, New York); RSR-4 [2-[4-[[(3,5-dichloroanilino)carbonyl]methyl]phenoxy]-2-methylpropionic acid]and RSR13 [2-4-[[(3,5- dimethylanilino)carbonyl]methyl]phenoxy]-2-methylpropionic acid] have been synthesized following the procedure described in Randad et al. (J. Med. Chem. 34,752 (1991)). Human serum albumin (HSA), bovine serum albumin (BSA) and 4,4'diisothiocyanatostilbene-2,2'-disulfonate (DIDS) were purchased from Sigma (St. Louis, Mo.). Due to their low solubility in aqueous buffer, 10 mM stock solutions of the compounds were prepared in a slight exccess of sodium bicarbonate and back-titrated to pH 7.4. For example, RSR-4 or RSR-13 was dissolved at 60° C. in a 140 mM NaCl and 50 mM bis-Tris buffer at room temperature upon progressive addition of NaHCO3 to obtain 10 mM stock solutions. The pH was carefully adjusted to 7.4 after complete solubilization and before use of the solutions. Fresh solutions were prepared each week. Stock solutions of DIDS (1 mM) were prepared, in the dark, on the day of the experiments in a pH 7.4 buffer. Human serum albumin (defatted HSA) and bovine serum albumin (BSA) were prepared freshly as 1 mM stock solutions, pH 7.4. Equilibrium Measurements. The allosteric modulation of the effectors on freshly prepared solutions of hemoglobin or red cell suspensions was measured by the change in p50, the partial pressure of oxygen for half-saturation. Oxygen equilibrium curves (OEC) were carried out with the Hemox analyzer (TCS, Southampton, Pa.) under the following conditions: pH 7.4, 140 mM NaCl and 50 mM bis-Tris buffer at 37° C. In all experiments, the concentration of hemoglobin in the red cell suspensions was 20-25 μM hemoglobin tetramer (Hb4) as measured by Drabkin's method (cyanomethemoglobin) at the end of each recording. The final concentration of the allosteric effector in the cuvette was 0.5 mM, resulting in an effector/Hb4 ratio of 20 in the absence of albumin. OEC were also made in the same buffer containing 12.5, 25, 50, and 100 μM HSA (for human red cell suspensions) or BSA (for bovine cell suspensions). The serum albumin experiments were carried out with traces of an antifoaming agent. This agent has no deleterious effect on the red cell suspensions. The molar ratio of albumin to tetrameric hemoglobin was varied from 0.5 (at 12.5 μM HSA) to 4 (at 100 μM HSA); in whole blood this ratio is approximately 0.3 (0.7 mM albumin plus plasma proteins/2.25 mM Hb4). Therefore, the concentration of albumin used in the present studies was always larger relative to tetrameric hemoglobin than that found in whole blood.
In FIG. 2, curve (1) is the control, curve (2) is the suspension plus 0.5 mM RSR-4, curve (3) is the suspension plus 0.5 mM RSR-4 plus 50 μM HSA, and curve […] is the suspension plus 0.5 mM RSR-4 plus 100 μM HSA. The concentration ratios of albumin/Hb are above those found in vivo. For example, in curve (3) serum albumin is about six times and in curve (4) about twelve times in excess above the concentration ratio of albumin/Hb found in vivo. The vertical lines indicate the physiological pO2 values in the arterial blood (90 mmHg) and in the mixed venous blood (40 mmHg). The change in oxygen saturation between these two lines allows an estimation of the capability of the red blood cells to deliver oxygen to tissues (ΔY (%), as discussed below in conjunction with Table 4).
In Vivo Estimates for Percent of Oxygen Delivery. Table 4 presents the calculated oxygen delivery index for red blood cell suspensions in the presence or absence of 0.5 mM L3,5 or RSR-4. The experimental conditions for the experiments of Table 4 were the same as those used for Table 1. The oxygen delivery index was calculated from the experimental oxygen binding curves as the difference in hemoglobin oxygen saturation (percent) corresponding to the pO2 in the arterial blood (90 mmHg) and that in the mixed venous blood (40 mMHg). […]

A further assay concerns purified Hb Yakima. Description: Effect on purified Hb Yakima. It is filed as biochemical, human.

“Also recorded” adds a separate entry of the source.

With `Cc1cc(C)cc(NC(=O)Cc2ccc(OC(C)(C)C(=O)O)cc2)c1` [RSR-13], the allosteric effector activity entry in assay [1] (0.5 mM effector, in the presence of 50 μM albumin) is listed as “greater than 90%”. In assay [1], the “effector activity in the presence of serum albumin” value is on record as “practically unaffected by serum albumin; also recorded: by far the least affected by serum albumin inhibition”. For the same compound, the “binding site in deoxyhemoglobin crystal” value at deoxyhemoglobin is on record as “bind in the central water cavity in a conformation identical to that found for RSR-4”.

Consider `CC(C)(Oc1ccc(CC(=O)Nc2cc(Cl)cc(Cl)c2)cc1)C(=O)O` [RSR-4, 2-[4-[[(3,5-dichloroanilino)carbonyl]methyl]phenoxy]-2-methylpropionic acid], for which the “effector activity in the presence of serum albumin” value in assay [1] is “greater than L3,5 and L3,4,5 at all serum albumin/Hb ratios studied”. The results for the “ΔY (oxygen delivery index)” value in assay [2] (50 μM HSA), in assay [2] (100 μM HSA) and in assay [2] (no HSA) were 39%, 34% and 41.5%, respectively. Also, the “state of purified Hb Yakima in the presence of effector” value in the assay with purified Hb Yakima is “remains locked in the high-affinity R-state”.

As for `CC(C)(Oc1ccc(NC(=O)Nc2cc(Cl)cc(Cl)c2)cc1)C(=O)O` [L3,5, reference compound], the “ΔY (oxygen delivery index)” value in assay [2] (50 μM HSA) is on record as 30%; in assay [2] (100 μM HSA), 25%; in assay [2] (no HSA) it was 42%. Besides, the “state of purified Hb Yakima in the presence of effector” value in the assay with purified Hb Yakima was “remains locked in the high-affinity R-state”. Moreover, the “second symmetry-related pair of binding sites” value on deoxyhemoglobin (near Arg 104β) is recorded as “have a second symmetry-related pair of binding sites near Arg 104β”.

These data come from patent publication US5661182A, “Method for lowering oxygen affinity of hemoglobin in redcell suspensions, in whole blood and in vivo” (Virginia Commonwealth University, priority 1995, dated 1997).
